Results taken from patent US7407648B2, “Merocyanine derivatives for cosmetic use” (Ciba Specialty Chemicals Corp., priority 2002, dated 2008).

Assay: UV absorption spectroscopic data (λmax, ε, E 1%/1 cm) of the merocyanine UV absorbers
Type: physicochemical
Design: λmax: unit not given beside the values
Conditions: for λmax [nm]: Table MC1; for E (1%, 1 cm) / ε / λmax / λmax (sh): Table MC3; for ε: at λmax; for λmax (sh): shoulder

Question: For `CCCCC(CC)COC(=O)/C(C#N)=C1/C=C(NCCNC2=C/C(=C(\C#N)C(=O)OCC(CC)CCCC)CC(C)(C)C2)CC(C)(C)C1` (centres unmarked) [MC01], which “λmax [nm]” value (in MeOH) is on record?
Answer: 362 (MeOH) nm

Question: Which “λmax [nm]” value (in MeOH) does the source give for `CCOC(=O)C(C(=O)OCC)=C1C=C(NCCNC2=CC(=C(C(=O)OCC)C(=O)OCC)CC(C)(C)C2)CC(C)(C)C1` [MC03] here?
Answer: 372 (MeOH) nm

Question: With `CC1(C)CC(NCCNC2=CC(=C(C#N)C#N)CC(C)(C)C2)=CC(=C(C#N)C#N)C1` [MC04] as the compound, how does the “λmax [nm]” value (in MeOH) read?
Answer: 361 (MeOH) nm

Question: For `CCOC(=O)/C(=C1\C=C(NCCNC2=C/C(=C(\C(=O)OCC)S(=O)(=O)c3ccccc3)CCC2)CCC1)S(=O)(=O)c1ccccc1` [MC05], which “λmax [nm]” value (in MeOH) is on record?
Answer: 362 (MeOH) nm

Question: With `Cc1ccc(S(=O)(=O)/C(C#N)=C\C=C2\OCC(C)(C)N2C)cc1` [MC06] as the compound, how does the “λmax [nm]” value (in MeOH) read?
Answer: 374 (MeOH) nm

Question: With `CCOC(=O)C(C(=O)OCC)=C1C=C(N2CCN(C3=CC(=C(C(=O)OCC)C(=O)OCC)CC(C)(C)C3)CC2)CC(C)(C)C1` [MC08] as the compound, how does the “λmax [nm]” value (in MeOH) read?
Answer: 373 (MeOH) nm

Question: Which “λmax [nm]” value (in MeOH) does the source give for `CCOC(=O)/C(C#N)=C1\C=C(NC2CCCCC2NC2=C/C(=C(/C#N)C(=O)OCC)CC(C)(C)C2)CC(C)(C)C1` (centres unmarked) [MC09] here?
Answer: 370 (MeOH) nm

Question: Which “λmax [nm]” value (in MeOH) does the source give for `CCOC(=O)C(C(=O)OCC)=C1C=C(NC2CCCCC2NC2=CC(=C(C(=O)OCC)C(=O)OCC)CC(C)(C)C2)CC(C)(C)C1` (centres unmarked) [MC10] here?
Answer: 362 (MeOH) nm

Question: For `CCOC(=O)/C(C#N)=C1\C=C(NCCN(CCNC2=C/C(=C(/C#N)C(=O)OCC)CC(C)(C)C2)CCNC2=C/C(=C(\C#N)C(=O)OCC)CC(C)(C)C2)CC(C)(C)C1` [MC11], which “λmax [nm]” value (in MeOH) is on record?
Answer: 375 (MeOH) nm

Question: With `CN(CCCNC1=CC(=C2C(=O)CC(C)(C)CC2=O)CCC1)CCCNC1=CC(=C2C(=O)CC(C)(C)CC2=O)CCC1` [MC12] as the compound, how does the “λmax [nm]” value (in MeOH) read?
Answer: 392 (MeOH) nm

Question: With `CC1(C)CC(NCCCOCCOCCNC2=CC(=C3C(=O)OC(C)(C)OC3=O)CC(C)(C)C2)=CC(=C2C(=O)OC(C)(C)OC2=O)C1` [MC13] as the compound, how does the “λmax [nm]” value (in MeOH) read?
Answer: 380 (MeOH) nm

Question: For `CCOC(=O)C(C(=O)OCC)=C1C=C(NCc2ccc(CNC3=CC(=C(C(=O)OCC)C(=O)OCC)CCC3)cc2)CCC1` [MC14], which “λmax [nm]” value (in MeOH) is on record?
Answer: 392 (MeOH) nm

Question: With `CCCCCCNC(=O)/C(=C1\C=C(NCCCNC2=C/C(=C(\C(=O)NCCCCCC)S(=O)(=O)c3ccccc3)CCC2)CCC1)S(=O)(=O)c1ccccc1` [MC16] as the compound, how does the “λmax [nm]” value (in MeOH) read?
Answer: 390 (MeOH) nm

Question: With `CCCCC(CC)COC(=O)/C(=C1\C=C(NCCCNC2=C/C(=C(\C(=O)OCC(CC)CCCC)S(=O)(=O)c3ccccc3)CCC2)CCC1)S(=O)(=O)c1ccccc1` (centres unmarked) [MC17] as the compound, how does the “λmax [nm]” value (in MeOH) read?
Answer: 385 (MeOH) nm

Question: With `CCOC(=O)/C(C#N)=C1\C=C(NCCCCCCNC2=C/C(=C(/C#N)C(=O)OCC)CCC2)CCC1` [MC18] as the compound, how does the “λmax [nm]” value (in MeOH) read?
Answer: 384 (MeOH) nm

Question: For `CCOC(=O)C(C(=O)OCC)=C1C=C(NCCCCCCNC2=CC(=C(C(=O)OCC)C(=O)OCC)CCC2)CCC1` [MC19], which “λmax [nm]” value (in MeOH) is on record?
Answer: 373 (MeOH) nm

Question: For `COc1cc(OC(=O)/C(C(C)=O)=C2/C=C(NCC(C)NC3=C/C(=C(\C(C)=O)C(=O)Oc4cc(OC)c(OC)c(OC)c4)CC(C)(C)C3)CC(C)(C)C2)cc(OC)c1OC` (centres unmarked) [MC22], which “λmax [nm]” value (in MeOH) is on record?
Answer: 395 (MeOH) nm

Question: With `CCOC(=O)/C(C#N)=C1\C=C(NC2CC(C)(C)CC(C)(CNC3=C/C(=C(\C#N)C(=O)OCC)CC(C)(C)C3)C2)CC(C)(C)C1` (centres unmarked) [MC24] as the compound, how does the “λmax [nm]” value (in MeOH) read?
Answer: 388 (MeOH) nm

Question: Which “λmax [nm]” value (in MeOH) does the source give for `CCOC(=O)C(C(=O)OCC)=C1C=C(NCC2(C)CC(NC3=CC(=C(C(=O)OCC)C(=O)OCC)CC(C)(C)C3)CC(C)(C)C2)CC(C)(C)C1` (centres unmarked) [MC25] here?
Answer: 395 (MeOH) nm

Question: With `CCCCC(CC)CNC(=O)/C(C#N)=C1/C=C(N2CCN(C3=C/C(=C(\C#N)C(=O)NCC(CC)CCCC)CC(C)(C)C3)C(C)C2)CC(C)(C)C1` (centres unmarked) [MC26] as the compound, how does the “λmax [nm]” value (in MeOH) read?
Answer: 374 (MeOH) nm

Question: With `CC(=O)/C(C(=O)OCC(C)C)=C1/C=C(NCC(C)(CNC2=C/C(=C(\C(C)=O)C(=O)OCC(C)C)CC(C)(C)C2)CNC2=C/C(=C(\C(C)=O)C(=O)OCC(C)C)CC(C)(C)C2)CC(C)(C)C1` [MC27] as the compound, how does the “λmax [nm]” value (in MeOH) read?
Answer: 385 (MeOH) nm

Question: With `CCCCC(CC)(CCCNC1=C/C(=C(/C(=O)OCC)C(=O)c2ccc(OC)cc2)CCC1)CNC1=C/C(=C(/C(=O)OCC)C(=O)c2ccc(OCC)cc2)CCC1` (centres unmarked) [MC28] as the compound, how does the “λmax [nm]” value (in MeOH) read?
Answer: 373 (MeOH) nm

Question: Which “λmax [nm]” value (in MeOH) does the source give for `COCCOC(=O)/C(C(C)=O)=C1/C=C(NCCC(C)(C)CC(C)CNC2=C/C(=C(\C(C)=O)C(=O)OCCOC)CC(C)C2)CC(C)C1` (centres unmarked) [MC29] here?
Answer: 383 (MeOH) nm

Question: Which “λmax [nm]” value (in MeOH) does the source give for `CC(=O)/C(C(=O)NCCNC(=O)/C(C(C)=O)=C1/C=C(N2CCCCC2)CCC1)=C1\C=C(N2CCCCC2)CCC1` [MC30] here?
Answer: 385 (MeOH) nm

Question: Which “λmax [nm]” value (in MeOH) does the source give for `CC(=O)/C(C(=O)Nc1ccc(NC(=O)/C(C(C)=O)=C2/C=C(N3CCCC3)CC(C)(C)C2)cc1)=C1\C=C(N2CCCC2)CC(C)(C)C1` [MC31] here?
Answer: 394 (MeOH) nm

Question: With `CCOC(=O)/C(=C1\C=C(NC(C)CC)CCC1)C(OC)(C(=O)OCC)/C(C(=O)OCC)=C1/C=C(NC(C)CC)CCC1` (centres unmarked) [MC33] as the compound, how does the “λmax [nm]” value (in MeOH) read?
Answer: 375 (MeOH) nm

Question: For `CC1(C)CC(NC2CCCCC2NC2=CC(=C(C#N)C#N)CC(C)(C)C2)=CC(=C(C#N)C#N)C1` (centres unmarked) [MC34], which “λmax [nm]” value (in MeOH) is on record?
Answer: 383 (MeOH) nm

Question: Which “λmax [nm]” value (in MeOH) does the source give for `COC(=O)C(C(=O)OC)=C1C=C(NC2CCCCC2NC2=CC(=C(C(=O)OC)C(=O)OC)CCC2)CCC1` (centres unmarked) [MC35] here?
Answer: 374 (MeOH) nm

Question: For `CCCCCCN(C=CC=C(C(C)=O)S(=O)(=O)c1ccc(C)cc1)CC` [MC36], which “λmax [nm]” value (in MeOH) is on record?
Answer: 385 (MeOH) nm

Question: For `CCCCC(CC)COC(=O)C(C#N)=CC=CN(CC)CC` (centres unmarked) [MC39], which “λmax [nm]” value (in EtOH) is on record?
Answer: 380 (EtOH) nm

Question: And the “E (1%, 1 cm)” value?
Answer: 2037

Question: What about the ε of the same compound?
Answer: 62400 L/mol/cm

Question: And the λmax (solvent not given)?
Answer: 380

Question: Which results are given for `CCCCCCCCOC(=O)/C(=C\C=C\N(CC)CC)S(=O)(=O)c1ccccc1` [MC172]?
Answer: E (1%, 1 cm): 1724; ε: 72700 L/mol/cm; λmax (solvent not given): 371

Question: Which results are given for `CCCCC(CC)COC(=O)/C(C#N)=C\C=C\N(CC)CCCN(/C=C/C=C(/C#N)C(=O)OCC(CC)CCCC)CC` (centres unmarked) [MC173]?
Answer: E (1%, 1 cm): 1545; ε: 92000 L/mol/cm; λmax (solvent not given): 390

Question: Which results are given for `CCCCC(CC)COC(=O)/C(C#N)=C/C=C/N1CCN(/C=C/C=C(\C#N)C(=O)OCC(CC)CCCC)CC1` (centres unmarked) [MC174]?
Answer: E (1%, 1 cm): 2650; ε: 146 379; λmax (solvent not given): 398

Question: What does the source list for `CN(C)/C=C/C=C1C(=O)OC(C)(C)OC1=O` [MC175]?
Answer: E (1%, 1 cm): 3022; ε: 68000 L/mol/cm; λmax (solvent not given): 383

Question: Which “E (1%, 1 cm)” value does the source give for `COC(=O)C(=C/C=C/N(C)C)C(=O)OC` [MC177] here?
Answer: 2488

Question: What about the ε of the same compound?
Answer: 53000 L/mol/cm

Question: And the λmax (solvent not given)?
Answer: 373

Question: For `COC(=O)C(=C/C=C/N1CCOCC1)C(=O)OC` [MC178], which “E (1%, 1 cm)” value is on record?
Answer: 1476

Question: And the ε?
Answer: 37700 L/mol/cm

Question: What about the λmax (solvent not given) of the same compound?
Answer: 373

Question: For `COC(=O)C(=C/C=C/N1CCCCC1)C(=O)OC` [MC179], which “E (1%, 1 cm)” value is on record?
Answer: 1953

Question: And the ε?
Answer: 49500 L/mol/cm

Question: And the λmax (solvent not given)?
Answer: 377

Question: For `COC(=O)C(=C/C=C/N(C(C)C)C(C)C)C(=O)OC` [MC180], which “E (1%, 1 cm)” value is on record?
Answer: 2111

Question: And the ε?
Answer: 56800 L/mol/cm

Question: And the λmax (solvent not given)?
Answer: 378

Question: For `CCOC(=O)C(=C/C=C/N1CCOCC1)C(=O)OCC` [MC181], which “E (1%, 1 cm)” value is on record?
Answer: 1684

Question: And the ε?
Answer: 47700 L/mol/cm

Question: And the λmax (solvent not given)?
Answer: 371

Question: Which “E (1%, 1 cm)” value does the source give for `CCCCN(/C=C/C=C(C(=O)OCC)C(=O)OCC)CCCC` [MC182] here?
Answer: 1423

Question: And the ε?
Answer: 60600 L/mol/cm

Question: What about the λmax (solvent not given) of the same compound?
Answer: 377

Question: For `CCCCC(CC)COC(=O)/C(C#N)=C\C=C\N(CC)CCCCN(/C=C/C=C(/C#N)C(=O)OCC(CC)CCCC)CC` (centres unmarked) [MC183], which “E (1%, 1 cm)” value is on record?
Answer: 2570

Question: What about the ε of the same compound?
Answer: 111000 L/mol/cm

Question: And the “λmax (sh)” value (solvent not given)?
Answer: 370

Question: And the λmax (solvent not given)?
Answer: 386

Question: With `CCCCC(CC)COC(=O)/C(C#N)=C1\C=C(N2CCOCC2)CC(C)(C)C1` (centres unmarked) [MC184] as the compound, how does the λmax (acetonitrile) read?
Answer: 399

Question: With `CCCCC(CC)COC(=O)/C(C#N)=C1\C=C(NC(C)CC)CC(C)(C)C1` (centres unmarked) [MC185] as the compound, how does the λmax (acetonitrile) read?
Answer: 388

Question: And the “λmax (sh)” value (acetonitrile)?
Answer: 368

Question: Which λmax (acetonitrile) does the source give for `CCOC(=O)C(C(=O)OCC)=C1C=C(N2CCOCC2)CC(C)(C)C1` [MC186] here?
Answer: 376
